The values that follow come from ChEMBL document CHEMBL1154481, “Pharmacophore modeling of diverse classes of p38 MAP kinase inhibitors” (Eur J Med Chem, 2008).

The nature of the test: Inhibition of p38 MAPK.

The structures appear in SMILES notation.

As usually defined, the IC50 is the midpoint of a concentration-inhibition curve. The compound `Nc1nc(N)c(F)c(-c2nc(-c3cccc(C(F)(F)F)c3)c(-c3ccncc3)[nH]2)c1F` displayed an IC50 of 470 nM.

Turning to `O=C1NCc2c(-c3ccc(F)cc3Cl)cc(C3CCN(CC4CC4)CC3)cc2N1c1c(Cl)cccc1Cl`, half-maximal inhibition (IC50) was put at 0.5 nM. In the case of `Nc1ccn2c(-c3ccncn3)c(-c3ccccc3)nc2n1` it was 990 nM; in that of `Cc1ccc(NC(=O)c2ccnc(N3CCOCC3)c2)cc1Nc1ccnc(OC2CCN(C)CC2)n1`, 40 nM; in that of `O=C1CCC(c2c(-c3ccc(F)cc3F)nc3ccccn23)=NN1c1c(Cl)cccc1Cl`, 8 nM.

In turn, `COc1cc2[nH]ccc2cc1C(=O)N1C[C@H](C)N(Cc2ccccc2)C[C@H]1C` registered an IC50 of 1300 nM. With `Cc1ccccc1Sc1ccc2c(n1)CNC(=O)N2c1c(Cl)cccc1Cl`, half-maximal inhibition (IC50) required 110 nM. `CCN(CC)CCCn1ccc2cc(C(=O)N3CCC(Cc4ccccc4)CC3)c(Cl)cc21` gave a half-maximal inhibitory concentration (IC50) of 200 nM. Consider `CC(C)(C)N1CCC(c2cc(-c3ccc(F)cc3Cl)c3c(c2)N(c2c(Cl)cccc2Cl)C(=O)NC3)CC1`, for which half-maximal inhibition (IC50) was put at 0.2 nM. This IC50 is about 1000-fold lower than that of the compound before. In the case of `COC[C@H](C)Nc1cc(-c2c(-c3ccccc3)nc3nc(N)ccn23)ccn1` it was 2 nM. `O=C1CCC(c2c(-c3cccc(C(F)(F)F)c3)nc3ccccn23)=NN1c1ccccc1Cl` yielded an IC50 of 170 nM.

Compound `O=C1NCc2c(-c3ccc(F)cc3Cl)cc(C3CCN(CC4CCC4)CC3)cc2N1c1c(Cl)cccc1Cl` displayed an IC50 of 0.6 nM. In the case of `O=C(c1ccc2[nH]cc(CN3CCOCC3)c2c1)N1CCC(Cc2ccccc2)CC1` it was 6600 nM; in that of `O=C1NCc2nc(Sc3ccccc3)ccc2N1c1c(Cl)cccc1Cl`, 270 nM; in that of `O=C(c1cccc2[nH]ccc12)N1CCN(Cc2ccccc2)CC1`, 4700 nM. The compound `Fc1ccc(-c2[nH]c3ccc4[nH]c(Cc5ccccc5)nc4c3c2-c2ccncc2)cc1` showed a half-maximal inhibitory concentration (IC50) of 22 nM. Compound `COc1ccc(C#CC(C)(C)N)cc1C(=O)c1ccc(Nc2ccc(F)cc2F)cc1` gave an IC50 of 14 nM. The compound `O=c1ccc(-c2c(-c3ccc(F)cc3)nc3ccccn23)nn1-c1c(Cl)cccc1Cl` returned an IC50 of 49 nM.

Turning to `Nc1ccn2c(-c3ccnc(NCc4ccccc4)c3)c(-c3ccc(F)cc3)nc2n1`, the IC50 was determined as 6 nM. In the case of `Cc1ccccc1N1N=C(c2c(-c3ccc(F)cc3F)nc3ccccn23)CCC1=O` it was 8 nM; in that of `Cc1ccccc1-c1nc(N(C(N)=O)c2c(F)cccc2F)c2ncn(C)c2n1`, 140 nM.
